Our source for the IC50 values is BindingDB's records for patent US20240246981 (Boehringer Ingelheim International, 2024).

The target of assay [1] is Glutaminyl-peptide cyclotransferase (Homo sapiens, UniProt Q16769). Kind of assay: Biochemical QPCT and QPCTL Activity Assay. How it is done: (§1) QPCT or QPCTL dependent conversion of N-terminal glutamine to pyroglutamate of CD47 was monitored via MALDI-TOF MS. Test compounds were dissolved in 100% DMSO and serially diluted into clear 1,536-well microtiter plates. Enzymatic reactions were set up in assay buffer containing 20 mM Tris pH 7.5, 0.1 mM TCEP, 0.01% BSA, and 0.001% Tween20. […] The plates were incubated for 10 min in a humidified incubator at 24° C. Subsequently, 2.5 μL of CD47 peptide substrate surrogate (19[…]33) was added to each well (final concentration: 10 μM for QPCTL/20 μM for QPCT). The plates were mixed for 30 sec at 1,000 rpm and subsequently incubated for 40 min in a humidified incubator at 24° C. […] The plates were sealed with an adhesive foil, mixed for 30 s at 1,000 rpm and stored at room temperature until preparation of the MALDI target plates. MALDI target plates were prepared as described previously.
Glutaminyl-peptide cyclotransferase, sequence (Q16769 whole entry): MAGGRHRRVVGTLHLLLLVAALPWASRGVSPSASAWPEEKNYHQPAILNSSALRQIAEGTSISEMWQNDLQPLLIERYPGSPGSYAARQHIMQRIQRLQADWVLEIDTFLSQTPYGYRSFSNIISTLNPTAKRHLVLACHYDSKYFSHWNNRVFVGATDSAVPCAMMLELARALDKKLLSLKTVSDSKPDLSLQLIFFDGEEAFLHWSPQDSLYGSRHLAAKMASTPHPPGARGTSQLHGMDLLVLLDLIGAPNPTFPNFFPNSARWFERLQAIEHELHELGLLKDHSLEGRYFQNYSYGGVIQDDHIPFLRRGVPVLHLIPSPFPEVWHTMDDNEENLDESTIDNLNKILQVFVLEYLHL

For assay [2], the target named is Glutaminyl-peptide cyclotransferase-like protein (Homo sapiens, UniProt Q9NXS2). Kind of assay: Biochemical QPCT and QPCTL Activity Assay. How it is done: as §1
Glutaminyl-peptide cyclotransferase-like protein, sequence (Q9NXS2 whole entry): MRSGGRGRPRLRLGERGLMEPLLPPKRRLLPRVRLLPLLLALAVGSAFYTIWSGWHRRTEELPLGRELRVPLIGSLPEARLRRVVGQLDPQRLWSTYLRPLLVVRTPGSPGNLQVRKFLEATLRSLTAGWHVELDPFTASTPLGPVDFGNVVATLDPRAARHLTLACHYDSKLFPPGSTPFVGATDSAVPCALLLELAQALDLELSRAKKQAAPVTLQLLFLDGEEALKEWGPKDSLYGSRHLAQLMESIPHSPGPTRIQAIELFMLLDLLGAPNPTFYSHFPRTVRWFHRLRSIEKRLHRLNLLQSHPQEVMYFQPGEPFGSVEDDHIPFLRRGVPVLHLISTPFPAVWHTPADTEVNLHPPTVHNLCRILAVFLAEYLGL

The structures appear in SMILES notation.

One may read the IC50 as the concentration needed to halve the response being measured. A lower IC50 goes with inhibition by little substance. With `Cn1cnnc1C1CCN(c2c(C#N)cccc2-c2cncc(-c3ccccc3)c2)CC1` [US20240246981, Example 21], the values for the IC50 in assay [1] and in assay [2] were 195 nM and 50 nM, respectively.
For `Cn1cnnc1C1CCN(c2c(C#N)cccc2-c2cncc(OC(F)F)c2)CC1` [US20240246981, Example 23], in that order: 162 nM and 31 nM.
As to `Cn1cnnc1C1CCN(c2c(C#N)cccc2-c2cnc(F)c(OC3CCC3)c2)CC1` [US20240246981, Example 34], the values for the IC50 in assay [1] and in assay [2] were 6 nM and 1 nM, respectively.
On the same counts, the results for `Cn1cnnc1C1CCN(c2c(C#N)cccc2-c2cnc(F)c(OC(F)F)c2)CC1` [US20240246981, Example 37] are 28 nM and 8 nM.
In assay [2], `Cn1cnnc1C1CCN(c2c(C#N)cccc2-c2cnc(F)c(Oc3ccccc3)c2)CC1` [US20240246981, Example 38] showed an IC50 of 13 nM.
In assay [1], `Cn1cnnc1C1CCN(c2c(C#N)cccc2-c2cnc3nn(C)c(C(F)(F)F)c3c2)CC1` [US20240246981, Example 41] registered an IC50 of 9 nM.
In the case of `Cn1cnnc1C1(F)CCN(c2c(C#N)cccc2-c2cnc3nn(CC(F)(F)F)cc3c2)CC1` [US20240246981, Example 55], the IC50 in assay [2] turned out to be 1 nM.
Still for that read-out and setting: the figure for `Cn1cnnc1C1(F)CCN(c2c(C#N)cccc2-c2cnc(=O)n(C)c2)CC1` [US20240246981, Example 58] is 1 nM.
With `Cn1cnnc1C1(C)CCN(c2c(C#N)cccc2-c2cccnc2)CC1` [US20240246981, Example 65], the IC50 in assay [1] is 9 nM; in assay [2], 26 nM.
